Measurements: patent US20250161212A1, “LIQUID PHARMACEUTICAL FORMULATION OF OMEPRAZOLE OR ESOMEPRAZOLE” (ALKALOID AD SKOPJE, priority 2022, published 2025)

Experiment: Stability study of esomeprazole sodium dissolved in DMSO stored at 25° C. (impurities)
Format: physicochemical
Procedure: Example 9—Stability Study Stability results for esomeprazole sodium dissolved in DMSO stored at 25° C.: • Key: • Imp D: omeprazole impurity D: [drawing 3] • RRT: Relative retention time.

[1] = 1.5 months, second table, Imp-s > 0.02%
[2] = 3 months, second table, Imp-s > 0.02%
[3] = 5 months, second table, Imp-s > 0.02%
[4] = 9 months, second table, Imp-s > 0.02%
[5] = 13 months, second table, Imp-s > 0.02%
[6] = Initial, second table, Imp-s > 0.02%
[7] = in DMSO, 25° C., 1.5 months, first table
[8] = in DMSO, 25° C., 5 months, first table
[9] = in DMSO, 25° C., Initial, first table

SMILES: COc1ccc2nc([S@@+]([O-])Cc3ncc(C)c(OC)c3C)[nH]c2c1 (single isomer, unassigned) [esomeprazole sodium]
- Total impurities (1.5 months, second table): 0.14%
- Imp D (omeprazole impurity D) [1]: 0.03%
- impurity RRT 1.23 [1]: 0.03%
- Total impurities (3 months, second table): 0.17%
- Imp D (omeprazole impurity D) [2]: 0.03%
- impurity RRT 1.23 [2]: 0.03%
- Total impurities (5 months, second table): 0.16%
- Imp D (omeprazole impurity D) [3]: 0.03%
- impurity RRT 1.17 [3]: 0.03%
- Total impurities (9 months, second table): 0.25%
- Imp D (omeprazole impurity D) [4]: 0.03%
- impurity RRT 0.53 [4]: 0.03%
- impurity RRT 1.23 [4]: 0.03%
- impurity RRT 1.31 [4]: 0.03%
- Total impurities (13 months, second table): 0.36%
- Imp D (omeprazole impurity D) [5]: 0.03%
- impurity RRT 0.54 [5]: 0.04%
- impurity RRT 0.90 [5]: 0.04%
- impurity RRT 1.23 [5]: 0.03%
- impurity RRT 1.31 [5]: 0.04%
- impurity RRT 1.32 [5]: 0.03%
- Total impurities (Initial, second table): 0.12%
- Imp D (omeprazole impurity D) [6]: 0.03%
- impurity RRT 1.23 [6]: 0.03%
- Imp D (omeprazole impurity D) [7]: Imp D = 0.03%
- Total impurities [7]: Total = 0.14%
- impurity RRT 1.23 [7]: RRT 1.23 = 0.03%
- Imp D (omeprazole impurity D) [8]: Imp D = 0.03%
- Total impurities [8]: Total = 0.15%
- impurity RRT 0.57 [8]: RRT 0.57 = 0.02%
- impurity RRT 1.14 [8]: RRT 1.14 = 0.02%
- impurity RRT 1.17 [8]: RRT 1.17 = 0.03%
- impurity RRT 1.23 [8]: RRT 1.23 = 0.02%
- Imp D (omeprazole impurity D) [9]: Imp D = 0.03%
- Total impurities [9]: Total = 0.12%
- impurity RRT 1.19 [9]: RRT 1.19 = 0.02%
- impurity RRT 1.23 [9]: RRT 1.23 = 0.03%
